The values below come from BindingDB's records for doi:10.1016/j.bmcl.2010.05.078 (University of Arizona, 2010).

In one assay the target is Melanocortin receptor 4 (Homo sapiens, UniProt P32245). Description: Displacement of Eu-NDP-alphaMSH from human MC4 receptor expressed in human HEK293 cells.
Assay [1] is described as follows: Agonist activity at mu opioid receptor in guinea pig ileum assessed as inhibition of electrically-stimulated muscle contraction.

Sequence of Melanocortin receptor 4 (P32245 whole entry): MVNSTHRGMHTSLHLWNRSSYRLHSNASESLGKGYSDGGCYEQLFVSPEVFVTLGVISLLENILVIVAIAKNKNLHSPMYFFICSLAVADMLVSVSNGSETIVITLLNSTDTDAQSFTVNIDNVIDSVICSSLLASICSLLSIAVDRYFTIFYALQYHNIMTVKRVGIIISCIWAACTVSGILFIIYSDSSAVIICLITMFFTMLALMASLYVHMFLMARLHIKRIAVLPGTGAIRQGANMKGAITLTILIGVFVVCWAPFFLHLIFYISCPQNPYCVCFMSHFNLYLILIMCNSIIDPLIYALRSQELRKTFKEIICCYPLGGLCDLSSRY

`CCCC[C@H](NC(=O)[C@H](Cc1c[nH]c2ccccc12)NC(=O)[C@H](CCCN=C(N)N)NC(=O)[C@@H](Cc1ccc2ccccc2c1)NC(=O)[C@H](Cc1cnc[nH]1)NC(=O)[C@H](Cc1ccccc1)NC(=O)[C@@H](C)NC(=O)[C@@H](N)Cc1ccc(O)cc1)C(=O)N[C@@H](CC(=O)O)C(=O)N[C@@H](Cc1ccccc1)C(N)=O` [(3S,6S,9S,12S,15R,18S,21S,24R,27S)-18-((1H-imidazol-5-yl)methyl)-9-((1H-indol-3-yl)methyl)-27-amino-3-((S)-1-amino-1-oxo-3-phenylpropan-2-ylcarbamoyl)-21-benzyl-6-butyl-12-(3-guanidinopropyl)-28-(4-hydroxyphenyl)-24-methyl-15-(naphthalen-2-ylmethyl)-5,8,11,14,17,20,23,26-octaoxo-4,7,10,13,16,19,22,25-octaazaoctacosan-1-oic acid] showed a 50% inhibitory concentration (IC50) on Melanocortin receptor 4 of 0.631 µM.

For the molecule `Cc1cc(O)cc(C)c1C[C@H](N)C(=O)N1CC(=O)N[C@@H](Cc2cnc[nH]2)C(=O)N[C@H](Cc2ccccc2)C(=O)N[C@@H](CCCN=C(N)N)C(=O)N[C@@H](Cc2c[nH]c3ccccc23)C(=O)N[C@H](C(=O)N[C@@H](CC(=O)O)C(=O)N[C@@H](Cc2ccccc2)C(N)=O)CSSC[C@@H](N)C1=O` [(S)-3-((4R,7S,10S,13R,16S,22S)-16-((1H-imidazol-5-yl)methyl)-7-((1H-indol-3-yl)methyl)-22-amino-20-((S)-2-amino-3-(4-hydroxy-2,6-dimethylphenyl)propanoyl)-13-benzyl-10-(3-guanidinopropyl)-6,9,12,15,18,21-hexaoxo-1,2-dithia-5,8,11,14,17,20-hexaazacyclotricosane-4-carboxamido)-4-((S)-1-amino-1-oxo-3-phenylpropan-2-ylamino)-4-oxobutanoic acid], the IC50 in assay [1] came to 0.19 µM.
